# Source: ChEMBL document CHEMBL4602687, “Dual Binding to Orthosteric and Allosteric Sites Enhances the Anticancer Activity of a TRAP1-Targeting Drug” (J Med Chem, 2020)
# Substitutions are numbered along the chain they refer to. Activity calls are given as the source filed them. The rule behind the calls is not given here.
# Legend:
# [1] = target: T1, Heat shock protein 75 kDa, mitochondrial (Homo sapiens) (UniProt Q12931); test: Inhibition of TRAP1 in human PC3 cells assessed as reduction in SIRT3 expression at 5 uM measured after 2 to 12 hrs by Western blot analysis; type: cell-based; conditions: PC-3
# T1 sequence (whole entry): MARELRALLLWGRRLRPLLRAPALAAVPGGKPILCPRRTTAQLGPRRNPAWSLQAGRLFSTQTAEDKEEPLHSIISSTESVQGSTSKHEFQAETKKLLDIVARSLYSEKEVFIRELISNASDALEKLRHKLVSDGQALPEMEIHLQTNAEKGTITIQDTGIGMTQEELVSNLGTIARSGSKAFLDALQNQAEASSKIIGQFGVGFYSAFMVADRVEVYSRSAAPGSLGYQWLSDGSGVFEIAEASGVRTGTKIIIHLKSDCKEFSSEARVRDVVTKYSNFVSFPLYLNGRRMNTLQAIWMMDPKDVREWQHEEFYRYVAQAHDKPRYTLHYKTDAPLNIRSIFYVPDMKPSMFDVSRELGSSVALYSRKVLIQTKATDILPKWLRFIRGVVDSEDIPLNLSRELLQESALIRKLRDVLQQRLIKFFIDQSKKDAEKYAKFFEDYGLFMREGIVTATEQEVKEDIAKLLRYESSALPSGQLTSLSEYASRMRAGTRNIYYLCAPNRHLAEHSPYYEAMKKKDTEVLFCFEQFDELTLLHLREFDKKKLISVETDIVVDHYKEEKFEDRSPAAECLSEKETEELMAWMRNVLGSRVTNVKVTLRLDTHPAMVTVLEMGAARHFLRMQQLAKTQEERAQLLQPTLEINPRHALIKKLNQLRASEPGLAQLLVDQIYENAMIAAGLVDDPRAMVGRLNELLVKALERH
# [2] = target: T1, Heat shock protein 75 kDa, mitochondrial (Homo sapiens); test: Inhibition of TRAP1 in human PC3 cells assessed as reduction in SDHB expression at 5 uM measured after 2 to 12 hrs by Western blot analysis; type: cell-based; conditions: PC-3
# [3] = system: T2, Heat shock protein 75 kDa, mitochondrial (Homo sapiens), Q12931 [R114E,E403K]; test: Stimulation of recombinant […] human TRAP1 R114E/E403K mutant ATPase activity expressed in Escherichia coli BL21 (DE3) up to 20 uM preincubated for 0.5 hrs followed by ATP addition and measured after 3 hrs by PiColorLock Gold reagent based colorimetric assay
# T2 sequence (whole entry): T1 sequence (whole entry) with R114E, E403K
# [4] = system: PC-3; test: Cytotoxicity against human PC3 cells assessed as reduction in cell viability up to 3 uM measured after 24 hrs by MTT assay; type: functional, cell-based
# [5] = target: T1, Heat shock protein 75 kDa, mitochondrial (Homo sapiens); test: Inhibition of TRAP1 in human PC3 cells assessed as increase in reactive oxygen species generation at 10 uM measured after 2 hrs by Mito-SOX probe based flow cytometry; type: cell-based; conditions: PC-3
# [6] = target: T1, Heat shock protein 75 kDa, mitochondrial (Homo sapiens); test: Allosteric modulation of recombinant wild-type human TRAP1 ATPase activity expressed in Escherichia coli BL21 (DE3) assessed as increase in substrate Km at 5 uM preincubated for 0.5 hrs followed by varying levels of ATP addition and measured after 3 hrs using PiColorLock Gold reagent by colorimetric assay-based Lineweaver-Burk plot analysis relative to control
# [7] = system: T3, Heat shock protein 75 kDa, mitochondrial (Homo sapiens), Q12931 [R114E]; test: Stimulation of recombinant […] human TRAP1 R114E mutant ATPase activity expressed in Escherichia coli BL21 (DE3) up to 20 uM preincubated for 0.5 hrs followed by ATP addition and measured after 3 hrs by PiColorLock Gold reagent based colorimetric assay
# T3 sequence (whole entry): T1 sequence (whole entry) with R114E
# [8] = target: T1, Heat shock protein 75 kDa, mitochondrial (Homo sapiens); test: Binding affinity to recombinant wild-type human TRAP1 ATP site expressed in Escherichia coli BL21 (DE3) assessed as induction of conformational change by measuring closed state population of TRAP1 at 10 uM measured after 30 mins in absence of ATP by TEM analysis (reference value: 52.1 +/- 0.6 %)
smiles,measurement,setting,value
Nc1ncnc2c1nc(Sc1cc3c(cc1I)OCO3)n2CCCCCCCCCC[P+](c1ccccc1)(c1ccccc1)c1ccccc1,inhibition,[1],Active
same,inhibition,[2],Active
same,Activity,[3],Active
same,Activity,[4],Active
same,inhibition,[5],Active
same,fold change (FC),[6],3
same,Activity,[7],Active
same,Activity,[8],72.5%
